Source: US20150196033A1, “PESTICIDAL COMPOSITIONS AND PROCESSES RELATED THERETO” (priority 2012, published 2015)
Like-named read-outs stand apart in the source and are kept apart here.

What was measured:
Format in all cases: in vivo
[1] = tested on: Corn Earworm (CEW) (Helicoverpa zea); test: Bioassay on Corn Earworm (CEW), 128-well diet tray assay; conditions: for mortality at 50 µg/cm2 / mortality at 0.5 µg/cm2: Helicoverpa zea, 168 h; for mortality at 50 µg/cm2: read-out: Rating CEW (% Control (or Mortality)); for mortality at 0.5 µg/cm2: 0.5 μg/cm2 on artificial diet, read-out: Rating CEW (% Control (or Mortality)), *Tested at 0.5 μg/cm2
Procedure: (§1) Certain molecules disclosed in this document were tested against BAW and CEW using procedures described in the following examples. In the reporting of the results, the “BAW & CEW Rating Table” was used (See Table Section).
Bioassays on CEW (Helicoverpa zea)
(§2) Trays were covered with a clear self-adhesive cover and held at 25° C., 14:10 light-dark for five to seven days. Percent mortality was recorded for the larvae in each well; activity in the eight wells was then averaged. The results are indicated in the table entitled “Table ABC: Biological Results” (See Table Section).

[2] = tested on: Green Peach Aphid (GPA) (Myzus persicae); test: Bioassay on Green Peach Aphid (GPA), foliar spray on cabbage seedlings; conditions: 200 ppm foliar spray on cabbage seedlings, graded after three days, Abbott corrected % control; for mortality at 200 ppm: Myzus persicae, 72 h, read-out: Rating GPA (% Control (or Mortality))
Procedure: Certain molecules disclosed in this document were tested against GPA using procedures described in the following example. In the reporting of the results, the “GPA Rating Table” was used (See Table Section).
Cabbage seedlings grown in 3-inch pots, with 2-3 small (3-5 cm) true leaves, were used as test substrate. The seedlings were infested with 20-50 GPA (wingless adult and nymph stages) one day prior to chemical application. Four pots with individual seedlings were used for each treatment. Test compounds (2 mg) were dissolved in 2 mL of acetone/MeOH (1:1) solvent, forming stock solutions of 1000 ppm test compound. The stock solutions were diluted 5× with 0.025% Tween 20 in H2O to obtain the solution at 200 ppm test compound. A hand-held aspirator-type sprayer was used for spraying a solution to both sides of […] leaves until runoff. Reference plants (solvent check) were sprayed with the diluent only containing 20% by volume of acetone/MeOH (1:1) solvent. Treated plants were held in a holding room for three days at approximately 25° C. and ambient relative humidity (RH) prior to grading. Evaluation was conducted by counting the number of live aphids per plant under a microscope. Percent Control was measured by using Abbott's correction formula (W.S. Abbott, “A Method of Computing the Effectiveness of an Insecticide” J. Econ. Entomol. 18 (1925), pp. 265-267) as follows.
Corrected % Control=100*(X−Y)/X • where • X=No. of live aphids on solvent check plants and • Y=No. of live aphids on treated plants

[3] = tested on: Beet Armyworm (BAW) (Spodoptera exigua); test: Bioassay on Beet Armyworm (BAW), 128-well diet tray assay; conditions: for mortality at 50 µg/cm2: read-out: Rating BAW (% Control (or Mortality))
Procedure: as §1
Bioassays on BAW (Spodoptera exigua)
as §2

[4] = 50 μg/cm2 on artificial diet, second instar larvae, five to seven days
[5] = Spodoptera exigua, 168 h, 50 μg/cm2 on artificial diet, second instar larvae, five to seven days
[6] = second instar larvae, five to seven days

| Compound | mortality at 50 µg/cm2 [1, 4] [%] | mortality at 200 ppm [2] [%] | mortality at 50 µg/cm2 [3, 5] [%] | mortality at 0.5 µg/cm2 [1, 6] [%] | further results |
| --- | --- | --- | --- | --- | --- |
| COc1ccc(N/C(=N/C(=O)Nc2ccc(-c3ncn(-c4ccc(C(F)(F)F)cc4)n3)cc2)SCOC(=O)C(C)C)c(C)c1 [Molecule A1, (E)-((N′-(4-methoxy-2-methylphenyl)-N-((4-(1-(4-(trifluoromethyl)phenyl)-1H-1,2,4-triazol-3-yl)phenyl)carbamoyl)carbamimidoyl)thio) methyl isobutyrate] | 50 to 100 | 0 | 50 to 100 |  |  |
| COc1ccc(N/C(=N/C(=O)Nc2ccc(-c3ncn(-c4ccc(C(F)(F)F)cc4)n3)cc2)SC)c(C)c1 [Molecule A2, (Z)-Methyl N-(4-methoxy-2-methylphenyl)-N′-((4-(1-(4-(trifluoromethyl)phenyl)-1H-1,2,4-triazol-3-yl)phenyl)carbamoyl)carbamimidothioate] | 50 to 100 | 0 | 50 to 100 |  |  |
| CC(C)C(=O)OCS/C(=N\C(=O)Nc1ccc(-c2ncn(-c3ccc(OC(F)(F)C(F)(F)F)cc3)n2)cc1)Nc1ccccc1C(C)C [Molecule A6, (Z)-((N-(2-Isopropylphenyl)-N′-((4-(1-(4-(pentafluoroethoxy)phenyl)-1H-1,2,4-triazol-3-yl)phenyl)carbamoyl)carbamimidoyl)thio)methyl isobutyrate] | 50 to 100 | 0 | 50 to 100 |  |  |
| COc1cc(C)c(N/C(=N/C(=O)Nc2ccc(-c3ncn(-c4ccc(OC(F)(F)F)cc4)n3)cc2)SCOC(=O)C(C)C)c(C)c1 [Molecule A7, (E)-(N′-(2,6-Dimethyl-4-methoxyphenyl)-N-(4-(1-(4-(trifluoromethyoxy)phenyl)-1H-1,2,4-triazol-3-yl)phenylcarbamoyl)carbamimidoylthio)methyl isobutyrate] | 50 to 100 | 0 to 80 | 50 to 100 |  |  |
| Cc1cccc(C)c1N/C(S)=N/C(=O)Nc1ccc(-c2ncn(-c3ccc(OC(F)(F)F)cc3)n2)cc1 [Molecule A11] | 50 to 100 | 0 to 80 | 50 to 100 |  |  |
| Cc1cccc(C)c1N/C(S)=N/C(=O)Nc1ccc(-c2ncn(-c3ccc(C(F)(F)F)cc3)n2)cc1 [Molecule A12] | 50 to 100 | 0 | 50 to 100 |  |  |
| CC(=O)/C(C(=O)Nc1ccc(-c2ncn(-c3ccc(OC(F)(F)F)cc3)n2)cc1)=C(/S)Nc1ccccc1C(C)C [Molecule A20, (E)-3-hydroxy-2-((2-isopropylphenyl)carbamothioyl)-N-(4-(1-(4-(trifluoromethoxy)phenyl)-1H-1,2,4-triazol-3-yl)phenyl)but-2-enamide] | 50 to 100 | 0 | 50 to 100 |  |  |
| Cc1ccccc1N/C(S)=C/C(=O)Nc1ccc(-c2ncn(-c3ccc(OC(F)(F)F)cc3)n2)cc1 [Molecule A22, 3-thioxo-3-(o-tolylamino)-N-(4-(1-(4-(trifluoromethoxy)phenyl)-1H-1,2,4-triazol-3-yl)phenyl)propanamide] | 50 to 100 | 0 | 50 to 100 |  |  |
| Cc1cccc(C)c1N/C(O)=C/C(=O)Nc1ccc(-c2ncn(-c3ccc(OC(F)(F)F)cc3)n2)cc1 [Molecule A32, (Z)-3-(2,6-dimethylphenylamino)-3-hydroxy-I-(4-(1-(4-(trifluoromethoxy)phenyl)-1H-1,2,4-triazol-3-yl)phenyl)acrylamide] | 50 to 100 | 0 | 50 to 100 |  |  |
| COc1ccc(N/C(O)=C/C(=O)Nc2ccc(-c3ncn(-c4ccc(OC(F)(F)F)cc4)n3)cc2)c(C)c1 [Molecule A33, (Z)-3-hydroxy-3-(4-methoxy-2-methylphenylamino)-N-(4-(1-(4-(trifluoromethoxy)phenyl)-1H-1,2,4-triazol-3-yl)phenyl)acrylamide] | 50 to 100 | 0 to 80 | 50 to 100 |  |  |
| COc1ccc(Cl)cc1N1C(=O)CS/C1=N\C(=O)Nc1ccc(-c2ncn(-c3ccc(OC(F)(F)F)cc3)n2)cc1 [Molecule A111] |  |  | 50 to 100 | 50 to 100 |  |
| CC(C)c1ccccc1N/C(S)=N/C(=O)Nc1ccc(-c2ncn(-c3ccc(C(F)(F)C(F)(F)C(F)(F)F)cc3)n2)cc1 [Molecule A113] |  |  |  |  | mortality at 50 µg/cm2 [1]: 0%; mortality at 50 µg/cm2 ([3]; Spodoptera exigua, 168 h): 50 to 100% |
| CC(C)c1ccccc1N/C(S)=N/C(=O)Nc1ccc(-c2ccn(-c3ccc(OC(F)(F)F)cc3)n2)cc1 [Molecule A114] |  |  | 50 to 100 | 50 to 100 |  |
| CC(C)c1ccccc1N1C(=O)CS/C1=N\C(=O)Nc1ccc(-c2ncn(-c3ccc(OC(F)(F)C(F)(F)F)cc3)n2)cc1 [Molecule A115] |  |  | 50 to 100 | 50 to 100 |  |
| CC(C)c1cc(F)ccc1N/C(S)=N/C(=O)Nc1ccc(-c2ncn(-c3ccc(OC(F)(F)F)cc3)n2)cc1 [Molecule A116] |  |  | 50 to 100 | 50 to 100 |  |
| CC(C)c1cc(F)ccc1N1C(=O)CS/C1=N\C(=O)Nc1ccc(-c2ncn(-c3ccc(OC(F)(F)F)cc3)n2)cc1 [Molecule A117] |  |  | 50 to 100 | 50 to 100 |  |
| CC(C)c1cccc(N/C(S)=N/C(=O)Nc2ccc(-c3ncn(-c4ccc(OC(F)(F)F)cc4)n3)cc2)c1 [Molecule A118] | 0 |  | 0 |  |  |
| CC(C)n1nccc1N/C(S)=N/C(=O)Nc1ccc(-c2ncn(-c3ccc(OC(F)(F)F)cc3)n2)cc1 [Molecule A119] |  |  | 50 to 100 | 0 to 50 |  |
| CC(C)c1cccc(N2C(=O)CS/C2=N\C(=O)Nc2ccc(-c3ncn(-c4ccc(OC(F)(F)F)cc4)n3)cc2)c1 [Molecule A120] | 0 |  | 0 |  |  |
| CC(C)n1nccc1N1C(=O)CS/C1=N\C(=O)Nc1ccc(-c2ncn(-c3ccc(OC(F)(F)F)cc3)n2)cc1 [Molecule A121] |  |  | 50 to 100 | 50 to 100 |  |
| O=C(/N=C(\S)Nc1ccccc1C(F)(F)F)Nc1ccc(-c2ncn(-c3ccc(OC(F)(F)F)cc3)n2)cc1 [Molecule A127] | 0 |  | 50 to 100 |  |  |
| O=C(/N=C1\SCC(=O)N1c1ccccc1C(F)(F)F)Nc1ccc(-c2ncn(-c3ccc(OC(F)(F)F)cc3)n2)cc1 [Molecule A128] |  |  |  | 50 to 100 | mortality at 0.5 µg/cm2 ([3]; Spodoptera exigua, 168 h, 0.5 μg/cm2 on artificial diet, second instar larvae, five to seven days, read-out: Rating BAW (% Control (or Mortality)), *Tested at 0.5 μg/cm2): 50 to 100% |
| (E)-((N′-(4-Methoxy-2,6-dimethylphenyl)-N-((4-(1-(4-(trifluoromethyl)phenyl)-1H-1,2,4-triazol-3-yl)phenyl)carbamoyl) carbamimidoyl)thio)methyl 2-(((benzyloxy)carbonyl)amino)acetate [Molecule A9] |  |  |  |  | Rating CEW (% Control (or Mortality)) [1, 4]: A (50-100); Rating GPA (% Control (or Mortality)) [2]: B (More than 0-Less than 80); Rating BAW (% Control (or Mortality)) [3, 4]: A (50-100) |
